Reference: ChEMBL document CHEMBL3885881, “DrugMatrix”

Organism: Rattus norvegicus
Assay: DrugMatrix - Regimen: Daily Repeat
Format: toxicity, organism-based, Sprague-Dawley
Set-up: regimen Daily Repeat, gender Male, age 6-8 weeks
Settings: in vivo, po, route oral GAVAGE, vehicle .5 % CMC; for ABSOLUTE BASOPHIL / ABSOLUTE EOSINOPHIL / ABSOLUTE LYMPHOCYTE / ABSOLUTE MONOCYTE / ABSOLUTE SEGMENTED NEUTROPHIL / BASOPHIL / EOSINOPHIL / ERYTHROCYTE COUNT / HEMATOCRIT / HEMOGLOBIN / LEUKOCYTE COUNT / LYMPHOCYTE / MEAN CORPUSCULAR HEMOGLOBIN / MEAN CORPUSCULAR HEMOGLOBIN CONCENTRATION / MEAN CORPUSCULAR VOLUME / MONOCYTE / NEUTROPHIL / NUCLEATED RED BLOOD CELLS / PLATELET COUNT: tissue Blood; for ALANINE AMINOTRANSFERASE / ALBUMIN / ALKALINE PHOSPHATASE / ASPARTATE AMINOTRANSFERASE / BLOOD UREA NITROGEN / CARBON DIOXIDE / CHLORIDE / CHOLESTEROL / CREATINE PHOSPHOKINASE / CREATININE / GLUCOSE / LACTATE DEHYDROGENASE / LIPASE / PHOSPHORUS / POTASSIUM / SODIUM / TOTAL BILIRUBIN / TOTAL PROTEIN / URIC ACID: tissue Plasma
[1] = 0 mg/kg, 72 h, dose level Control, time 3 day
[2] = 0 mg/kg, 120 h, dose level Control, time 5 day
[3] = 20 mg/kg, 72 h, dose level Low, time 3 day

NC(=O)N1c2ccccc2CC(=O)c2ccccc21 [OXCARBAZEPINE]
ABSOLUTE BASOPHIL [1]: 0 CELLS/uL | ABSOLUTE EOSINOPHIL [1]: 0 CELLS/uL | ABSOLUTE LYMPHOCYTE [1]: 12269.67 CELLS/uL | ABSOLUTE MONOCYTE [1]: 160.33 CELLS/uL | ABSOLUTE SEGMENTED NEUTROPHIL [1]: 970 CELLS/uL | BASOPHIL [1]: 0% | EOSINOPHIL [1]: 0% | ERYTHROCYTE COUNT [1]: 5.76 x10E6/uL | HEMATOCRIT [1]: 36.57% | HEMOGLOBIN [1]: 14.22 G/DL | LEUKOCYTE COUNT [1]: 13.4 x10E3/uL | LYMPHOCYTE [1]: 91.67% | MEAN CORPUSCULAR HEMOGLOBIN [1]: 24.67 pg | MEAN CORPUSCULAR HEMOGLOBIN CONCENTRATION [1]: 38.85 G/DL | MEAN CORPUSCULAR VOLUME [1]: 63.52 fL | MONOCYTE [1]: 1.17% | NEUTROPHIL [1]: 7.17% | NUCLEATED RED BLOOD CELLS [1]: 0.33 /100WBC | PLATELET COUNT [1]: 1250.83 x10E3/uL | ALANINE AMINOTRANSFERASE [1]: 49.17 u/L | ALBUMIN [1]: 4.33 G/DL | ALKALINE PHOSPHATASE [1]: 378.5 u/L | ASPARTATE AMINOTRANSFERASE [1]: 82.17 u/L | BLOOD UREA NITROGEN [1]: 15 mg/dL | CARBON DIOXIDE [1]: 34.33 mmol/L | CHLORIDE [1]: 99.17 MEQ/L | CHOLESTEROL [1]: 71.17 mg/dL | CREATINE PHOSPHOKINASE [1]: 258.67 u/L | CREATININE [1]: 0.18 mg/dL | GLUCOSE [1]: 142.67 mg/dL | LACTATE DEHYDROGENASE [1]: 154.33 u/L | LIPASE [1]: 9 u/L | PHOSPHORUS [1]: 11.67 mg/dL | POTASSIUM [1]: 7.13 MEQ/L | SODIUM [1]: 142.22 MEQ/L | TOTAL BILIRUBIN [1]: 0.18 mg/dL | TOTAL PROTEIN [1]: 5.77 G/DL | URIC ACID [1]: 1.55 mg/dL | ABSOLUTE BASOPHIL [2]: 0 CELLS/uL | ABSOLUTE EOSINOPHIL [2]: 23.33 CELLS/uL | ABSOLUTE LYMPHOCYTE [2]: 14943.67 CELLS/uL | ABSOLUTE MONOCYTE [2]: 32 CELLS/uL | ABSOLUTE SEGMENTED NEUTROPHIL [2]: 1084.33 CELLS/uL | BASOPHIL [2]: 0% | EOSINOPHIL [2]: 0.17% | ERYTHROCYTE COUNT [2]: 5.71 x10E6/uL | HEMATOCRIT [2]: 35.28% | HEMOGLOBIN [2]: 14.27 G/DL | LEUKOCYTE COUNT [2]: 16.08 x10E3/uL | LYMPHOCYTE [2]: 93% | MEAN CORPUSCULAR HEMOGLOBIN [2]: 25.02 pg | MEAN CORPUSCULAR HEMOGLOBIN CONCENTRATION [2]: 40.43 G/DL | MEAN CORPUSCULAR VOLUME [2]: 61.82 fL | MONOCYTE [2]: 0.17% | NEUTROPHIL [2]: 6.67% | NUCLEATED RED BLOOD CELLS [2]: 0.33 /100WBC | PLATELET COUNT [2]: 1274 x10E3/uL | ALANINE AMINOTRANSFERASE [2]: 54.17 u/L | ALBUMIN [2]: 4.22 G/DL | ALKALINE PHOSPHATASE [2]: 373.17 u/L | ASPARTATE AMINOTRANSFERASE [2]: 81.83 u/L | BLOOD UREA NITROGEN [2]: 16.67 mg/dL | CARBON DIOXIDE [2]: 30.33 mmol/L | CHLORIDE [2]: 99 MEQ/L | CHOLESTEROL [2]: 71 mg/dL | CREATINE PHOSPHOKINASE [2]: 273.5 u/L | CREATININE [2]: 0.22 mg/dL | GLUCOSE [2]: 141.83 mg/dL | LACTATE DEHYDROGENASE [2]: 153.67 u/L | LIPASE [2]: 10.33 u/L | PHOSPHORUS [2]: 11.38 mg/dL | POTASSIUM [2]: 7.08 MEQ/L | SODIUM [2]: 142.75 MEQ/L | TOTAL BILIRUBIN [2]: 0.18 mg/dL | TOTAL PROTEIN [2]: 6.1 G/DL | URIC ACID [2]: 1.67 mg/dL | ABSOLUTE BASOPHIL [3]: 0 CELLS/uL | ABSOLUTE EOSINOPHIL [3]: 39.67 CELLS/uL | ABSOLUTE LYMPHOCYTE [3]: 12910 CELLS/uL | ABSOLUTE MONOCYTE [3]: 169.33 CELLS/uL | ABSOLUTE SEGMENTED NEUTROPHIL [3]: 1314.33 CELLS/uL | BASOPHIL [3]: 0% | EOSINOPHIL [3]: 0.33% | ERYTHROCYTE COUNT [3]: 5.51 x10E6/uL | HEMATOCRIT [3]: 35.53% | HEMOGLOBIN [3]: 14 G/DL | LEUKOCYTE COUNT [3]: 14.43 x10E3/uL | LYMPHOCYTE [3]: 90% | MEAN CORPUSCULAR HEMOGLOBIN [3]: 25.43 pg | MEAN CORPUSCULAR HEMOGLOBIN CONCENTRATION [3]: 39.43 G/DL | MEAN CORPUSCULAR VOLUME [3]: 64.5 fL | MONOCYTE [3]: 1.33% | NEUTROPHIL [3]: 8.33% | NUCLEATED RED BLOOD CELLS [3]: 0.33 /100WBC | PLATELET COUNT [3]: 1357.67 x10E3/uL | ALANINE AMINOTRANSFERASE [3]: 55.67 u/L | ALBUMIN [3]: 4.33 G/DL | ALKALINE PHOSPHATASE [3]: 378.33 u/L | ASPARTATE AMINOTRANSFERASE [3]: 87.67 u/L | BLOOD UREA NITROGEN [3]: 12.67 mg/dL | CARBON DIOXIDE [3]: 27.33 mmol/L | CHLORIDE [3]: 103 MEQ/L | CHOLESTEROL [3]: 73.33 mg/dL | CREATINE PHOSPHOKINASE [3]: 333.33 u/L | CREATININE [3]: 0.24 mg/dL | GLUCOSE [3]: 150.67 mg/dL | LACTATE DEHYDROGENASE [3]: 316 u/L | LIPASE [3]: 10 u/L | PHOSPHORUS [3]: 13.2 mg/dL | POTASSIUM [3]: 7.12 MEQ/L | SODIUM [3]: 146.57 MEQ/L | TOTAL BILIRUBIN [3]: 0.2 mg/dL | TOTAL PROTEIN [3]: 5.93 G/DL | URIC ACID [3]: 2.37 mg/dL
